Assay results: patent US20120141589A1, “PARTICLES FOR DRUG DELIVERY AND OTHER APPLICATIONS” (BASF SE, priority 2010, published 2012)

How the values were obtained:
[1] = Dissolution test of drug/CaCO3 hybrid particles against raw drug crystals, flow-through UV-Vis; assay type: physicochemical; conditions: drug in CaCO3 hybrid particles; 10 mM SDS, pH 1.5 (HCl), 37° C., sink conditions, monitored at 290 nm
Protocol: In this example, the dissolution rates of the particles were determined, and compared to compared with raw, micron-sized drug crystals.
During the dissolution experiments, for convenience, dissolution media was placed in a dissolution chamber which is typically used for pressure dialysis; no pressure was applied for the measurements described here. The vessel used in these experiments contained a built-in stir bar and the dissolution media was stirred at a rate of approximately one revolution per second. Dissolution media was drawn from the bottom of the vessel, through a 0.1 micron PTFE filter. The media vessel was connected to a flow-through UV-Vis spectrophotometer cell via tubing and the liquid was driven using a peristaltic pump. A flow rate of 8 mL per second was used. The output of the flow-through cell was connected back to the dissolution chamber, so that the flow formed a closed loop; in this manner the volume of the dissolution media was conserved.
All water used was distilled and de-ionized. […] The raw drug powder was not ground. […] All dissolution media was kept at 37° C.

[2] = no UV-vis signal detectable in pure water or acidic water with added HCl
Protocol: All water used was distilled and de-ionized. These drugs were monitored at a wavelength of 290 nm. Templates were prepared for dissolution testing by grinding pellets in a mortar and pestle into a fine powder. The raw drug powder was not ground. All tests were performed under sink conditions, where the total amount of drug added is less than one third of the saturation concentration. All dissolution media was kept at 37° C.

Compound	dissolution rate when incorporated into a hybrid structure, compared with raw, micron-sized drug crystals [1]	solubility in water [2]
Clc1ccccc1C(c1ccccc1)(c1ccccc1)n1ccnc1 [chlotrimazole]	enhanced dissolution rates	poorly soluble in water
C[C@]12CC[C@@H]3c4ccc(O)cc4CC[C@H]3[C@@H]1CC[C@@H]2O [estradiol, 17-beta estradiol]	enhanced dissolution rates	–
